Assay [1] deals with Glutamate NMDA receptor (Rattus norvegicus) (UniProt P35439+Q00959+Q00960+Q00961+Q62645+Q8VHN2+Q9R1M7). Conditions: Compound concentration 10.0 uM.
The target in assay [2] is Histamine H4 receptor (Homo sapiens) (UniProt Q9H3N8). The note with it: Compound concentration 10.0 uM.
In assay [3] the target is Sodium-dependent noradrenaline transporter (Homo sapiens) (UniProt P23975). The note with it: Compound concentration 10.0 uM.
In assay [4] the target is Motilin receptor (Homo sapiens) (UniProt O43193). Conditions: Compound concentration 10.0 uM.
The target of assay [5] is Insulin receptor (Homo sapiens) (UniProt P06213). The note with it: Rattus norvegicus; Compound concentration 10.0 uM.
In assay [6] the target is Beta-2 adrenergic receptor (Homo sapiens) (UniProt P07550). The note with it: Compound concentration 10.0 uM.
For assay [7], the target named is D(2) dopamine receptor (Homo sapiens) (UniProt P14416). The note with it: Compound concentration 10.0 uM.
For another assay, the species on record is Homo sapiens. In words: Inhibition of Nicotinic Acetylcholine at compound concentration of 10.0 uM in the Eurofins-Panlabs radioligand binding assay (Eurofins_assay_258590). It is filed as protein-complex assay. The note with it: Compound concentration 10.0 uM.
Assay [8] has as its target GABA-A receptor; anion channel (Rattus norvegicus) (UniProt O09028+P15431+P18506+P18508+P19969+P20236+P23574+P23576+P28471+P28473+P30191+P62813+P63079+P63138+Q91ZM7+Q9ES14). The note with it: Compound concentration 10.0 uM.
The target of assay [9] is T1, Sodium-dependent dopamine transporter (Homo sapiens, UniProt Q01959). Nature of the assay: Inhibition of Transporter, Dopamine (DAT) at compound concentration of 10.0 uM in the Eurofins-Panlabs radioligand binding assay (Eurofins_assay_220320). Also noted: ligand concentration 0.15 nM, non-specific ligand with concentration 10 uM Nomifensine, incubation time 3 h, incubation temperature 4 C.

Assay [10] deals with Glucocorticoid receptor (Homo sapiens) (UniProt P04150). Conditions: Compound concentration 10.0 uM.
In assay [11] the target is T1, Sodium-dependent dopamine transporter. The note with it: Compound concentration 10.0 uM.
In assay [12] the target is Androgen receptor (Homo sapiens) (UniProt P10275). Conditions: Compound concentration 10.0 uM.
For assay [13], the target named is D(3) dopamine receptor (Homo sapiens) (UniProt P35462). Conditions: Compound concentration 10.0 uM.
The target of assay [14] is Kappa-type opioid receptor (Homo sapiens) (UniProt P41145). The note with it: Compound concentration 10.0 uM.
Assay [15] deals with Glutamate receptor 2 (Homo sapiens) (UniProt P42262). The note with it: Rattus norvegicus; Compound concentration 10.0 uM.
Assay [16] has as its target T2, Muscarinic acetylcholine receptor M2 (Homo sapiens) (UniProt P08172).
T2 sequence (whole entry): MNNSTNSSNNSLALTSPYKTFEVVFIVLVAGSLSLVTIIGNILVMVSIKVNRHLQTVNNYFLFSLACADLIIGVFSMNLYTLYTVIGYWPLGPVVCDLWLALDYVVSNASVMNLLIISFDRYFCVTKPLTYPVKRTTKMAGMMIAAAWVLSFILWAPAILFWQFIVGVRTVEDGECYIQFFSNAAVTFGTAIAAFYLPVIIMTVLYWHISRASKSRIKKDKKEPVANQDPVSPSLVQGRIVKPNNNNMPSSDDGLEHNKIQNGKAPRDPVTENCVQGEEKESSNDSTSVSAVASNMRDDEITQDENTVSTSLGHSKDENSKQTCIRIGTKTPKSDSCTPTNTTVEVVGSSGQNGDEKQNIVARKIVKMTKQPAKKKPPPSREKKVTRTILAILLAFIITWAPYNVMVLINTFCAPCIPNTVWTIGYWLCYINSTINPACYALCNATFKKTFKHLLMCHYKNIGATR
Conditions: Compound concentration 10.0 uM.

For the next assay, the target named is Progesterone receptor (Homo sapiens, UniProt P06401). In words: Inhibition of Progesterone PR-B at compound concentration of 10.0 uM in the Eurofins-Panlabs radioligand binding assay (Eurofins_assay_299005). Set-up: ligand concentration 0.5 nM, non-specific ligand with concentration 1 uM R5020, incubation time 20 h, incubation temperature 4 C.
Assay [17] deals with D(1B) dopamine receptor (Homo sapiens) (UniProt P21918). Conditions: Compound concentration 10.0 uM.
In assay [18] the target is Muscarinic acetylcholine receptor M3 (Homo sapiens) (UniProt P20309). Conditions: Compound concentration 10.0 uM.
Assay [19] addresses Transient receptor potential cation channel subfamily A member 1 (Mus musculus, UniProt Q8BLA8). In words: FLIPR Ca2+ assay (mouse TRPA1).
The target of assay [20] is T3, Histamine H2 receptor (Homo sapiens, UniProt P25021). Conditions: Compound concentration 10.0 uM.
Assay [21] has as its target Cannabinoid receptor 2 (Homo sapiens) (UniProt P34972). Conditions: Compound concentration 10.0 uM.
Assay [22] has as its target Estrogen receptor (Homo sapiens) (UniProt P03372). Conditions: Compound concentration 10.0 uM.
The target in assay [23] is B1 bradykinin receptor (Homo sapiens) (UniProt P46663). In words: Inhibition of Bradykinin B1 at 10 µM in the Eurofins-Panlabs radioligand binding assay (Eurofins_assay_212510). Conditions: Compound concentration 10.0 uM.
Assay [24] deals with 5-hydroxytryptamine receptor 5A (Homo sapiens) (UniProt P47898). Conditions: Compound concentration 10.0 uM.
For assay [25], the target named is T1, Sodium-dependent dopamine transporter. The note with it: Compound concentration 10.0 uM. This is another data set of the same source.
Assay [26] has as its target Vasopressin V1a receptor (Homo sapiens) (UniProt P37288). Conditions: Compound concentration 10.0 uM.
Assay [27] has as its target 5-hydroxytryptamine receptor 2B (Homo sapiens) (UniProt P41595). Conditions: Compound concentration 10.0 uM.
In assay [28] the target is T3, Histamine H2 receptor. Nature of the assay: GPCRScan assay: inhibition of H2. Also noted: radioligand conc. used [nm] 0.02 – 0.05, parental cells Stable HEK.

Among the data in ChEMBL document CHEMBL4507328, “Data for DCP probe BAY-390” (2021) are inhibition, IC50 and Ki values, retold here.

Activity calls are given as the source filed them. No cut-off for these calls is given here.

T1 sequence (Q01959 whole entry): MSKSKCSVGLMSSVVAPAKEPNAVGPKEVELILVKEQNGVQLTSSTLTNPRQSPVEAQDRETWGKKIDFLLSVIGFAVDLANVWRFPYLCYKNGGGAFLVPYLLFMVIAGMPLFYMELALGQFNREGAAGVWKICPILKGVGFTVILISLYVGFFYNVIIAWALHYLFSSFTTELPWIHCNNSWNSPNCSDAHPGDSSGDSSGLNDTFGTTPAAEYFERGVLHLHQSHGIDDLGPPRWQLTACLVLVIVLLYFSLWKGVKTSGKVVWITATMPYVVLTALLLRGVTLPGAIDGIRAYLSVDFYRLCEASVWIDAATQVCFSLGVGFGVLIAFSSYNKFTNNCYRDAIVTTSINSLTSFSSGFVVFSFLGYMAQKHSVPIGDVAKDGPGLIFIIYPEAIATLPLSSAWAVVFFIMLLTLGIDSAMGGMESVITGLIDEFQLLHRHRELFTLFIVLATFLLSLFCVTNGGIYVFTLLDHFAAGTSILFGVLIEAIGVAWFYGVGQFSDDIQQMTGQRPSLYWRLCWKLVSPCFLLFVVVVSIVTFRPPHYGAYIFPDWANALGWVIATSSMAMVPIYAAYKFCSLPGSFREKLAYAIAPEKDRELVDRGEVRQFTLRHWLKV
Chain of Progesterone receptor (P06401 whole entry): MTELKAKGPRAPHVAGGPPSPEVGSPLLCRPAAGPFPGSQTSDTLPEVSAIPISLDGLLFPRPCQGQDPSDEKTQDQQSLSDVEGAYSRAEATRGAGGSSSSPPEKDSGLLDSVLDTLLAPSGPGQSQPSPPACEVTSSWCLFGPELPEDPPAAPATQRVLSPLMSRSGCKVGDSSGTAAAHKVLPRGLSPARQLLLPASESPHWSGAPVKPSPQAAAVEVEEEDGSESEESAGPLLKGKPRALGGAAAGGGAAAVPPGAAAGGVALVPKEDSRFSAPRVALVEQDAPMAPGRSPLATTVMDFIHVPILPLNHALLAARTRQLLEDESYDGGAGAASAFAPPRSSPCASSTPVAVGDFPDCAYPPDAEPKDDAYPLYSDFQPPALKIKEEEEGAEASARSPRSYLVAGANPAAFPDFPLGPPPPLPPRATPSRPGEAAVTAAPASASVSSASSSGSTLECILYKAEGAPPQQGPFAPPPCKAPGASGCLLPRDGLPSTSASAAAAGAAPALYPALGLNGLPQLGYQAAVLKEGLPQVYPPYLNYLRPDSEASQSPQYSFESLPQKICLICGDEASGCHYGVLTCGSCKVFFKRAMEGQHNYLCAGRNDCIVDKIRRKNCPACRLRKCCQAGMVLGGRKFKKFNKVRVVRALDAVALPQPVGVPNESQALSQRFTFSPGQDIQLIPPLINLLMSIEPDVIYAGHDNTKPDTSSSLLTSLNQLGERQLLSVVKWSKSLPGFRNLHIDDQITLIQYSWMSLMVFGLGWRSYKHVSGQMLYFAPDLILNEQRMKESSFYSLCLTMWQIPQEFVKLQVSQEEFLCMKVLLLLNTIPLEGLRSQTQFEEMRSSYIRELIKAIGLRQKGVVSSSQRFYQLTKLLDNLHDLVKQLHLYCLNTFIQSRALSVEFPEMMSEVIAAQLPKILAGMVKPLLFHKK
T3 sequence (P25021 whole entry): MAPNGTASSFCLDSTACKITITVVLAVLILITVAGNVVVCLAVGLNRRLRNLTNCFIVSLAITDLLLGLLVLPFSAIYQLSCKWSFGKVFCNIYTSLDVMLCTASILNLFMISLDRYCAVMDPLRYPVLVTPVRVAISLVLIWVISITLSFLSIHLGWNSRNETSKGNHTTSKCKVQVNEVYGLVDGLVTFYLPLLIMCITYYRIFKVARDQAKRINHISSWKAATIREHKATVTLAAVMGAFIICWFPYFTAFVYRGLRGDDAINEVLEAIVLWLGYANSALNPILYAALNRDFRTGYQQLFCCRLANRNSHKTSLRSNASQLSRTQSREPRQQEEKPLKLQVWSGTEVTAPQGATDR
Chain of Androgen receptor (Homo sapiens) (P10275 whole entry): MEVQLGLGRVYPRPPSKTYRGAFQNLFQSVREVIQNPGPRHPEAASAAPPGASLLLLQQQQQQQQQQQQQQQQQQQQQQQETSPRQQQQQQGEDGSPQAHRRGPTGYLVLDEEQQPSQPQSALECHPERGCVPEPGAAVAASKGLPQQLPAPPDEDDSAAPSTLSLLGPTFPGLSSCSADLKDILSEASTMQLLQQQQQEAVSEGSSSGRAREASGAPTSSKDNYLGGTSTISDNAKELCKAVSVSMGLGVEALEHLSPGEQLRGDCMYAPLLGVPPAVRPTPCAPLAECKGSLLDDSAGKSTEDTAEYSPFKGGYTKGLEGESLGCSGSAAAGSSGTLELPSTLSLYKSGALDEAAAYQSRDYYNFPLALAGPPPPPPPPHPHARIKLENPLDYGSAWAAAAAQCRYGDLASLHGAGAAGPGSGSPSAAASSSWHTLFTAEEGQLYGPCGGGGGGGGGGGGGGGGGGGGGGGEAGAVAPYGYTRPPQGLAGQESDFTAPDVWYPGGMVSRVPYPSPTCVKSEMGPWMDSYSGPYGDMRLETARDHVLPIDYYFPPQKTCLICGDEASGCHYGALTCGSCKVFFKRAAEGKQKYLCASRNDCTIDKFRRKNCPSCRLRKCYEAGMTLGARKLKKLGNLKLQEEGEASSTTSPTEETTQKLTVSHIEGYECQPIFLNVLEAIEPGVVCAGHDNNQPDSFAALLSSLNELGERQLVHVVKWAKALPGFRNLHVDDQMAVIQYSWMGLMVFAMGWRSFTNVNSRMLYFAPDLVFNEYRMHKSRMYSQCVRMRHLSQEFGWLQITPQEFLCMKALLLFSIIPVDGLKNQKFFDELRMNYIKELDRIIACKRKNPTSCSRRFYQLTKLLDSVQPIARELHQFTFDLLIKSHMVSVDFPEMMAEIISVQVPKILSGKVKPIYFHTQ
Chain of D(3) dopamine receptor (Homo sapiens) (P35462 whole entry): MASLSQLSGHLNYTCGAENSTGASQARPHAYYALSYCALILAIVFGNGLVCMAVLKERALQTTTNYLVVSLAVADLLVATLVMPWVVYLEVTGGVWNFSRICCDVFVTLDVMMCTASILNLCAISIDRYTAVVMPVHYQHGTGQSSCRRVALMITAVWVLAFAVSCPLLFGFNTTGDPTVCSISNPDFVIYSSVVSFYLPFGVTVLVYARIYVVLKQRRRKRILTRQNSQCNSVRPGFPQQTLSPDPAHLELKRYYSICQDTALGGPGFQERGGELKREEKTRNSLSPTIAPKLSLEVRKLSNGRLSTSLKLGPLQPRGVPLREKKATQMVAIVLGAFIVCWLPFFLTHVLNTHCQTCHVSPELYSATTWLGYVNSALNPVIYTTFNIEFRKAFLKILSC
Chain of Muscarinic acetylcholine receptor M3 (Homo sapiens) (P20309 whole entry, looked up): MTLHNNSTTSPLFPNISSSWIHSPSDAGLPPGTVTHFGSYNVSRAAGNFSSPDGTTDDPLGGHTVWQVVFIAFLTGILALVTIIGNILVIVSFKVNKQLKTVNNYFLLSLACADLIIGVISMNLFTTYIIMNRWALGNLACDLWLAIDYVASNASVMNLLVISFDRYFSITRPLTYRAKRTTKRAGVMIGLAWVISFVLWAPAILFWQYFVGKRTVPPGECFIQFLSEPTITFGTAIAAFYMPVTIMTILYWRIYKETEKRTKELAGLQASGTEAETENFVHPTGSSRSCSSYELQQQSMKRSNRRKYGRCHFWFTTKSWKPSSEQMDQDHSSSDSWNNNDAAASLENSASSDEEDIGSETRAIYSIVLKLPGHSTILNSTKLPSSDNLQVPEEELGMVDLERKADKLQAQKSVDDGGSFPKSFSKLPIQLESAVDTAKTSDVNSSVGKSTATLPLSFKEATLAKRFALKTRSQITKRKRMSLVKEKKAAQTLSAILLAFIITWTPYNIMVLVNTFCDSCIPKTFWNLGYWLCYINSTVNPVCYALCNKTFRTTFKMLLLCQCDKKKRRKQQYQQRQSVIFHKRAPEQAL
Chain of 5-hydroxytryptamine receptor 2B (Homo sapiens) (P41595 whole entry): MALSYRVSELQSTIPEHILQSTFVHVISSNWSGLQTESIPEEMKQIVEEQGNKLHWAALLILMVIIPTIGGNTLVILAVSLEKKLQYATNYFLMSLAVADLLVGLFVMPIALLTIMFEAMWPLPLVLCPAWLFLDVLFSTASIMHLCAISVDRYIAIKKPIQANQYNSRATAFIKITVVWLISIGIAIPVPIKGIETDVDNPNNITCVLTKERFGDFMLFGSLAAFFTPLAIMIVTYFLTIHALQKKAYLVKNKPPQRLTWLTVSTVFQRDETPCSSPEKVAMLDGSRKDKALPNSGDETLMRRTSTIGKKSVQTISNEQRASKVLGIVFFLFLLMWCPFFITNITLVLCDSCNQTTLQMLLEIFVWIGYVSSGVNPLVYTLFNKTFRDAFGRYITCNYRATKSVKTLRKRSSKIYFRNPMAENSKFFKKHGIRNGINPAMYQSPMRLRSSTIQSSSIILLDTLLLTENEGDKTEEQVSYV
Chain of Vasopressin V1a receptor (Homo sapiens) (P37288 whole entry, looked up): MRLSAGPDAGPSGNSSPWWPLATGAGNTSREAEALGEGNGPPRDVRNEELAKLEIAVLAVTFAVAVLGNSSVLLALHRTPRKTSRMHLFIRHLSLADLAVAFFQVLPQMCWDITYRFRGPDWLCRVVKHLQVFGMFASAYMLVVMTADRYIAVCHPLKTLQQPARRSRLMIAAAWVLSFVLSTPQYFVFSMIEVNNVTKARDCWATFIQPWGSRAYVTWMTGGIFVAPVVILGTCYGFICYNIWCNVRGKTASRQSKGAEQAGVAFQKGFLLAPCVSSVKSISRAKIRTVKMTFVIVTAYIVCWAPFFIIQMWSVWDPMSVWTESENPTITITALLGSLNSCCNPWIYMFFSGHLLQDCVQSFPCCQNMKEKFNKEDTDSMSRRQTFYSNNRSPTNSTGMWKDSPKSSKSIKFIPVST

One may read the inhibition as the relative decrease from the control value, in per cent. The term IC50 denotes the concentration needed to halve the response being measured. The Ki is the dissociation constant of the complex between target and ligand, obtained from inhibition or displacement. Regarding `O[C@]1(C(F)(F)F)CCCC[C@H]1Nc1ccc(F)cc1` [BAY-390], the inhibition in assay [1] was 9%; in assay [2] it was 15.6%; in assay [3] it was 0.78%; in [4], 13%; in [5], 8%; in assay [6], 11%. The inhibition is 12% in [7]; -7% in the assay listed under Homo sapiens; -8% in [8]; 4% in assay [10]; 84% in [11]; 47% in [12]. Besides, the inhibition in [13] was 9%; in assay [14] it was 7%; in [15], 8%; in assay [16] it was -2%; in [17], 30.2%; in assay [18] it was 21%. Moreover, the inhibition was -8% at Histamine H2 receptor [20]; 21% in assay [21]; 75% in assay [22]; 9% in assay [23]; -7.74% in [24]; 56.5% in assay [25]. Besides, the inhibition in assay [26] was -7%. The IC50 is 1200 nM in assay [9], 5 µM at Progesterone receptor and 73 nM (active) in assay [19]. For the same compound, the Ki is 940 nM in assay [9] and 4 µM on Progesterone receptor.
Regarding `COc1cc(N[C@@H]2CCCC[C@]2(O)C(F)(F)F)ccc1F` [BAY-9897], in [27], the inhibition is 18%. The Ki on Histamine H2 receptor [28] amounted to 9.78 µM.
